The values that follow come from publication PMC7080406 (eLife, 2020).

The target in assay [1] is T1, MT1 (Homo sapiens, UniProt P48039).
T1 construct: expressed in transfected cells; host or cells: HEK293T (ATCC CRL-11268), transient transfection
The assay can be described thus: [3H]melatonin competition radioligand binding, MT1 membranes. The following applies: read-out: MT1 pKi ± SEM (converted). How it is done:
(§1) The Radioligand binding assays were conducted by the NIMH Psychoactive Drug Screening Program (PDSP). The NIMH PDSP is directed by Bryan L. Roth, MD, PhD, at the University of North Carolina at Chapel Hill, North Carolina, and Program Officer Jamie Driscoll at NIMH, Bethesda, MD. Binding assay procedures and protocols are also available online at http://pdspdb.unc.edu/pdspWeb/?site=assays. […] Assay plates were sealed and incubated for 4 hr at 37°C in a humidified incubator until harvesting. Plates were harvested using vacuum filtration onto 0.3% polyethyleneimine pre-soaked 96-well Filtermat A (PerkinElmer) and washed three times with cold wash buffer (50 mM Tris, pH 7.4). Filters were dried and melted with a scintillation cocktail (Meltilex, PerkinElmer). Radioactivity was counted using a Wallac TriLux Microbeta counter (PerkinElmer). Results were analyzed using GraphPad Prism 7.0.

Assay [2] concerns the target T2, MT2 (Homo sapiens, UniProt P49286).
T2 sequence (P49286 1-362): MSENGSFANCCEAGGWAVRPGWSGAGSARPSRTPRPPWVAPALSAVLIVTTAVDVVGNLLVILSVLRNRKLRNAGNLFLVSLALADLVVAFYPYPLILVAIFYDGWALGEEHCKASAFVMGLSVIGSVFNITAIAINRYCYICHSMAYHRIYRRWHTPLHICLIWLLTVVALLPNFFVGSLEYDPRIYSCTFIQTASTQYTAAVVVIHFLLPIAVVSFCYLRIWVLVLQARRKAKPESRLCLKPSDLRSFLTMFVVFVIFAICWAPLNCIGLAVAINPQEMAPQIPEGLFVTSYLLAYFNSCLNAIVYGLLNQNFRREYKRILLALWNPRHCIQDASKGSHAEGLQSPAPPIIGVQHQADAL
The assay can be described thus: [3H]melatonin competition radioligand binding, MT2 membranes. The following applies: read-out: MT2 pKi ± SEM (converted). More on the design: expressed in transfected cells; host or cells: HEK293T (ATCC CRL-11268), transient transfection. How it is done:
as §1

The target of assay [3] is T1, MT1. As to the kind of experiment: GloSensor Gi/o-mediated cAMP production inhibition assay, MT1. To be noted: for EC50: Gi/o mediated; for MT1 LE: ligand efficiency (based on EC50); for Emax: read-out: MT1 Emax ± SEM. The assay is classed as cell-based. How it is done: (§2) Briefly, HEK293 T cells (as above) were transiently co-transfected with receptor (MT1 or MT2) and GloSensor cAMP (Promega) plasmids overnight, plated in Poly-L-Lysine coated 384-well white clear bottom plates in DMEM + 1% dialyzed FBS. Cells were used for assays at a minimum of 6 hr after plating. Culture medium was first removed and cells were stimulated with drugs in assay buffer (1x HBSS, 20 mM HEPES, 1 mg/ml BSA, 0.1 mg/ml ascorbic acid, pH 7.4) for 15 min at room temperature (this and all the following steps), followed by addition of a mixture of isoproterenol (final of 100 nM) and luciferin (final of 1 mM) for Gi/o-cAMP production inhibition assays and luciferin (final of 1 mM) for Gs-cAMP production assays. The plates were counted for luminescence after 25 min in a luminescence plate reader. Results were analyzed using GraphPad Prism 7.0.
(In general: Changes in cAMP serve as a functional read-out for many G protein-coupled receptors.)

In assay [4] the target is T2, MT2. The assay can be described thus: GloSensor Gi/o-mediated cAMP production inhibition assay, MT2. The assay is classed as cell-based. Further details: expressed in transfected cells; host or cells: HEK293T (ATCC CRL-11268), transient transfection. The following applies: for MT2/MT1 Selectivity: Antilog (log(Emax/EC50) MT2 - log (Emax/EC50) MT1), values below 1 = MT1 selectivity; for EC50: Gi/o mediated, read-out: MT2 EC50; for Emax: MT2, activation compared to melatonin, read-out: MT2 Emax ± SEM; for MT2 LE: ligand efficiency (based on EC50). As to the method:
as §2

Setting [5] is: SEM, N = 3, read-out: MT1 pEC50 ± SEM (converted).

Several values for one entry are separate records, joined by “and”; a condition that tells them apart may be missing. Equal values may be shown once. Read-outs that look alike come from different tables or passages of the source.

T1 sequence (P48039 whole entry): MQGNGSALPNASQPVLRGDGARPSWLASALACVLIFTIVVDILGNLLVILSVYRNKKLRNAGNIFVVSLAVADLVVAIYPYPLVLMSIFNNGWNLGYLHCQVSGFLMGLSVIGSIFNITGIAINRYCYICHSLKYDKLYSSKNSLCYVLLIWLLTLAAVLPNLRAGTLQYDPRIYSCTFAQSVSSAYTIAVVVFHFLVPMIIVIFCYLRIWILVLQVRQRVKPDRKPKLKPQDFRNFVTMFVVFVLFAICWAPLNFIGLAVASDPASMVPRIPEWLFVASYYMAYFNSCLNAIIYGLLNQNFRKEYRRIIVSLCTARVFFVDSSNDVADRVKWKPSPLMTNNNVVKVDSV

Consider `CC(=O)NCC1CCCCN1c1ccnc(C)n1` (stereo not shown) [Compound 29, N-{[1-(2-methylpyrimidin-4-yl)piperidin-2-yl]methyl}acetamide], for which the values for the Ki on MT1 [1] and at MT2 [2] were 6030 nM and 2450 nM, respectively. In addition, the EC50 is 148 nM on MT1 [3] (setting [5]), 144 nM on MT1 [3] (read-out: MT1 EC50) and 34.7 nM on MT2 [4]. Besides, on MT1 [3], the “MT1 LE” value is 0.53 kcal/mol per non-hydrogen atom. Further, the Emax at MT1 [3] is 87.5 ± 4.5%; on MT2 [4] it was less than 70%. The “MT2/MT1 Selectivity” value at MT2 [4] turned out to be 3.3 fold. For the same compound, the “MT2 LE” value on MT2 [4] is reported as 0.58 kcal/mol per non-hydrogen atom.
`Nc1cc(=O)[nH]c(=S)n1CCc1ccccc1` [Compound 62]: the Ki on MT1 [1] is 47900 nM. In addition, the Ki at MT2 [2] is 3240 nM. The EC50 on MT1 [3] (setting [5]) is 40700 nM. The EC50 at MT1 [3] (read-out: MT1 EC50) was determined as 42700 nM. In addition, on MT1 [3], the “MT1 LE” value is given as 0.36 kcal/mol per non-hydrogen atom and the Emax was 54.1 ± 10%. On MT2 [4], the “MT2/MT1 Selectivity” value stood at 875.9 fold, the EC50 is 52.5 nM, the maximal effect (Emax) is less than 70% and the “MT2 LE” value is listed as 0.60 kcal/mol per non-hydrogen atom.
With `COc1cccc(CNC(=O)c2ccno2)c1` [Compound 57, N-[(3-methoxyphenyl)methyl]-1,2-oxazole-5-carboxamide], the Ki on MT1 [1] was 14500 nM. Besides, the Ki on MT2 [2] was 4270 nM. The EC50 on MT1 [3] (setting [5]) is 1910 nM. Moreover, the EC50 on MT1 [3] (read-out: MT1 EC50) was found to be 1780 nM. At MT1 [3], the “MT1 LE” value is 0.47 kcal/mol per non-hydrogen atom and the maximum response (Emax) worked out at 87.5 ± 9.1%. Further, at MT2 [4], the “MT2/MT1 Selectivity” value is 10.3 fold, the EC50 was determined as 132 nM, the Emax is less than 70% and the “MT2 LE” value is on record as 0.57 kcal/mol per non-hydrogen atom.
As to `NC(=O)c1cc(C(=O)c2ccccc2Cl)c[nH]1` [Compound 47], the Ki is 26300 nM at MT1 [1] and 1230 nM on MT2 [2]. For the same compound, the EC50 at MT1 [3] (read-out: MT1 EC50) was 2340 nM; at MT1 [3] (text value, read-out: MT1 EC50), 2340 nM; at MT2 [4], 10 nM and 10.2 nM. The “MT1 LE” value at MT1 [3] is 0.46 kcal/mol per non-hydrogen atom. The Emax is 112 ± 5.2% on MT1 [3] and 91.7 ± 3% on MT2 [4]. In addition, the “MT2/MT1 Selectivity” value on MT2 [4] is 187 fold and 186.9 fold. The “MT2 LE” value on MT2 [4] is recorded as 0.66 kcal/mol per non-hydrogen atom.
For `COC(=O)c1[nH]c2cc(OC)ccc2c1N` [Compound 54], the Ki is 9330 nM on MT1 [1] and 2750 nM on MT2 [2]. For the same compound, the figures for the EC50 on MT1 [3] (setting [5]), at MT1 [3] (read-out: MT1 EC50) and at MT2 [4] were 871 nM, 741 nM and 18.2 nM, respectively. For the same compound, the “MT1 LE” value on MT1 [3] is 0.54 kcal/mol per non-hydrogen atom. The Emax on MT1 [3] stood at 82.8 ± 4.3%; on MT2 [4] it was 75 ± 3.7%. Further, the “MT2/MT1 Selectivity” value at MT2 [4] is on record as 36.9 fold. In addition, the “MT2 LE” value on MT2 [4] is 0.68 kcal/mol per non-hydrogen atom.
In the case of `COc1ccc2[nH]cc(CCNC(C)=O)c2c1` [Melatonin, N-acetyl-5-methoxytryptamine, reference compound], the Emax on MT1 [3] amounted to 100 ± 5.6%.
With `COc1cccc(Cn2c(N)cc(=O)[nH]c2=O)c1` [Compound 44, 6-amino-1-[(3-methoxyphenyl)methyl]-1,2,3,4-tetrahydropyrimidine-2,4-dione], the Ki at MT1 [1] was 64600 nM. Moreover, the Ki at MT2 [2] is 11200 nM. For the same compound, on MT1 [3] (read-out: MT1 EC50), the EC50 amounted to 57500 nM. Further, on MT1 [3], the “MT1 LE” value is recorded as 0.33 kcal/mol per non-hydrogen atom and the maximal response (Emax) was found to be 72.8 ± 4.7%. Moreover, at MT2 [4], the “MT2/MT1 Selectivity” value is 267 fold and 267.2 fold; the EC50 stood at 263 nM; the Emax was found to be 88.9 ± 6.3%; the “MT2 LE” value is reported as 0.51 kcal/mol per non-hydrogen atom.
For the compound `COc1cccc([C@@H]2C[C@H]2CNC(=O)C(N)=O)c1` (racemic) [Compound 23, rac-N'-{[(1R,2R)-2-(3-methoxyphenyl)cyclopropyl]methyl}ethanediamide], the Ki at MT1 [1] was 3800 nM. Also, on MT2 [2], the Ki is 2750 nM. Moreover, on MT1 [3] (setting [5]), the EC50 is 69.2 nM. Also, at MT1 [3] (read-out: MT1 EC50), the EC50 turned out to be 57.5 nM. Moreover, at MT1 [3], the “MT1 LE” value is given as 0.56 kcal/mol per non-hydrogen atom and the Emax came to 96.9 ± 5.3%. Also, on MT2 [4], the “MT2/MT1 Selectivity” value was found to be 2.7 fold, the EC50 is 20.4 nM, the maximal response (Emax) turned out to be 91.7 ± 3% and the “MT2 LE” value is 0.60 kcal/mol per non-hydrogen atom.
As for `CC(=O)c1sc2nc3c(cc2c1N)CCC3` [Compound 45], at MT1 [1], the Ki is 28800 nM. Besides, the Ki on MT2 [2] is 5500 nM. Moreover, the EC50 at MT1 [3] (read-out: MT1 EC50) worked out at 8710 nM. Besides, at MT1 [3], the “MT1 LE” value is recorded as 0.44 kcal/mol per non-hydrogen atom and the Emax is 90.6 ± 14.3%. At MT2 [4], the “MT2/MT1 Selectivity” value is 17 fold and 16.9 fold; the EC50 is 427 nM; the Emax amounted to 75 ± 7.4%; the “MT2 LE” value is 0.56 kcal/mol per non-hydrogen atom.

Usually Emax stands for the greatest response seen or fitted, relative to the assay's reference.
